According to patent publication US8247224B2, “Recombinant construct for detection of halogenated aromatic hydrocarbons” (National Health Research Institutes, priority 2010, dated 2012):

Target: T1, AhR (Rattus norvegicus, UniProt P41738)
T1 construct: introducing a recombinant construct as described above into a host cell that expresses AhR; endogenous in cells; host or cells: H-4-II-E cells infected with the AdEasy-4XDRE-TATA-Luc reporter adenovirus
T1 sequence (P41738 10-853): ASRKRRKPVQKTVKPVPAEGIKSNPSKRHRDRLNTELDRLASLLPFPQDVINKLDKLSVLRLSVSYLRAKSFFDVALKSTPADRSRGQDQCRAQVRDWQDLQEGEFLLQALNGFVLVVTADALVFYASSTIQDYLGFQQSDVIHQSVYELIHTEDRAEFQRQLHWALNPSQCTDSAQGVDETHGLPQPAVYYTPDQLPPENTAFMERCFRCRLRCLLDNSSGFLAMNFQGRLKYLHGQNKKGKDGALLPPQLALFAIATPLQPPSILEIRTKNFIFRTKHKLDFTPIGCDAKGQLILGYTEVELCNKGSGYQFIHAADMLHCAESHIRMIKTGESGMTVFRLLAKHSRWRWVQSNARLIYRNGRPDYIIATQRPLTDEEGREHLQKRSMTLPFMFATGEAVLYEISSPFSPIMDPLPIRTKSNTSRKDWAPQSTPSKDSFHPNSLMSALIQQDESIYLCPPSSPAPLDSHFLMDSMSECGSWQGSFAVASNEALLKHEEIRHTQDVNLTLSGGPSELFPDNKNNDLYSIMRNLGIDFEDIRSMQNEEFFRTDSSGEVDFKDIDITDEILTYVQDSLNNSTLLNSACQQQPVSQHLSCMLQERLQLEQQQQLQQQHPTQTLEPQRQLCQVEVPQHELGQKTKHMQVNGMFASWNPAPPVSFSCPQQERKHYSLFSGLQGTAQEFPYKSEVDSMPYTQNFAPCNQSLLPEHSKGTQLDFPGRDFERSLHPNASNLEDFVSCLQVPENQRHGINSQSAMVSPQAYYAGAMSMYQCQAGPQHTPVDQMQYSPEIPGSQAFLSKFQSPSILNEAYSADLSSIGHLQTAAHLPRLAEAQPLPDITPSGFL
Test: Luciferase activity of H-4-II-E cells infected with AdEasy-4XDRE-TATA-Luc and treated with TCDD
Format: cell-based
Settings: AdEasy-4XDRE-TATA-Luc at MOI of one particles/cell for 16 hours, TCDD for 24 hours, luciferase activity (RLU), FIG. 6
Text: As known in the art, the action of the HAH compounds is mediated through a cytosolic transcription factor, called the aryl hydrocarbon receptor (AhR). After binding of the ligand (HAH compounds), the resulted AhR complex binds to specific DNA sequences i.e. DREs, and then results in transcriptional activation of the adjacent responsive genes. The consensus sequence of the DREs is 5′-TNGCGTG-3′ where N means any nucleotide of A, T, G and C.
H-4-II-E cells (Bioresources Collection and Research Center (BCRC), Food Industry Research and Development Institute (FIRDI), Hsinchu, Taiwan) were seeded on 96-well plates at a density of 2×10^4 cells/well in culture medium (80% Minimum essential medium Eagle with 0.1 mM non-essential amino acids, Earle's BSS, 10% fetal bovine serum and 10% calf serum) and cultured overnight in a humidified atmosphere containing 5% CO2 at 37° C. Subsequently, the cells were incubated with AdEasy-4XDRE-TATA-Luc as obtained in Example 1 at a multiplicity of infection (MOI) of one particles/cell for 16 hours. […] Luciferase activity was measured by Luciferase Assay System (Promega, Madison, Wis., USA) according to the standard protocol as provided using the programmed microplate luminometer MicroLumatPlus LB96V (EG&G Berthold, Germany). The luciferase activity was expressed as relative light units (RLU).

Clc1cc2c(cc1Cl)Oc1cc(Cl)c(Cl)cc1O2 [TCDD, 2,3,7,8-tetrachlorodibenzo-p-dioxin]
concentrations between which the luciferase response shows a steep slope: 10^−12 to 10^−10 M | detection limit: around 10^−12 M
